According to patent US20260364184A1, “COMPOUND BASED ON OXOISOINDOLINYL-SUBSTITUTED TETRAHYDROPYRIMIDINE-DIONE AND USE THEREOF” (GLUETACS THERAPEUTICS (SHANGHAI) CO., LTD., priority 2023, published 2026):

Tests used:
[1] = target: T1, human Cereblon WT GST-tagged protein (CRBN) (Homo sapiens, UniProt Q96SW2); experiment: CRBN binding by HTRF (Cereblon binding kit)
T1 construct: purchased CISBIO 64BDCRBNPEH
Procedure, shortened: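 GST-tagged human Cereblon WT was incubated 3 h at room temperature with compound, thalidomide-Re tracer and Eu anti-GST antibody. Final compound concentrations were 10 to 0.00064 µM (7 points) or 2 and 0.5 µM. Inhibition rate was calculated from HTRF 665/620 nm ratios versus solvent and blank controls.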

AKT = experiment: Western blot degradation of AKT; type: cell-based; settings: hPBMC Cell; 24 hours
Method: Conventional Western blot assay was performed to evaluate the effects of the compounds of the present disclosure on the expression of target proteins in cells.
(1) Cell Seeding and Protein Harvesting: The selected cells were processed according to the cell seeding procedure and protein harvesting procedure in Table II-2.
(2) To the collected supernatant, 5×SDS sample loading buffer was added, followed by denaturation at 95 °C for 5 minutes. The denatured samples were then separated by SDS-PAGE electrophoresis on a polyacrylamide gel. Proteins were transferred to a nitrocellulose membrane (0.45 μm NC membrane), blocked with blocking buffer at room temperature for 1 hour, and subjected to antibody incubation and development procedures according to the antibody manufacturer's instructions (Cell Signaling Technology).
Half-Maximal Degradation Concentration value (the drug concentration required for degrading proteins by 50%, abbreviated as DC50) reads method: comparing the grayscale values of Western blot bands from drug-treated samples with those from blank DMSO-treated controls, and identifying the drug concentration range at which the grayscale value is half that of the DMSO-treated control bands.
DC50 values can be calculated using ImageJ software to measure grayscale values of Western blot bands from drug-treated samples. The concentration-response curve is fitted to estimate the drug concentration corresponding to half the grayscale value.
Target protein remaining (%) refers to the percentage of target protein remaining in cells after treatment with protein degrader compounds.
Calculation method for target protein remaining (%): Use ImageJ software to measure grayscale values of Western blot bands from drug (protein degrader)-treated samples. The grayscale value of drug-treated bands is divided by that of internal control protein bands, and the resulting quotient is normalized to obtain the relative percentage of remaining target protein after protein degrader treatment.
Target protein degradation rate (%)=1−target protein remaining (%).

T1 sequence (Q96SW2 whole entry): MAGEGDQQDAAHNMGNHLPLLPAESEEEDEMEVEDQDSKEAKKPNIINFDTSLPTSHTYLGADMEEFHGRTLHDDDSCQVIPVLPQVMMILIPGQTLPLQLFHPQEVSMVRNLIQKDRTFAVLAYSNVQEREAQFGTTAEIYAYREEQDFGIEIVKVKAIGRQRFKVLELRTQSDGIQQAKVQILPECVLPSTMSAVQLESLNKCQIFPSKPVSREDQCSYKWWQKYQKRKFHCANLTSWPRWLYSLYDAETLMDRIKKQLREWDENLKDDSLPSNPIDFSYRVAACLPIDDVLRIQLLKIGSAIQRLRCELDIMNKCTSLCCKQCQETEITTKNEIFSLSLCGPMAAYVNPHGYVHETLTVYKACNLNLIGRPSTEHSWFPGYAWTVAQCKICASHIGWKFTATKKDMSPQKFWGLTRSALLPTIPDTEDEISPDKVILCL

| SMILES | inhibition at 0.5 µM ([1]; 0.5 μM, read-out: Inhibition Rate at 0.5 μM (%)) [%] | inhibition at 2 µM ([1]; 2 μM, read-out: Inhibition Rate at 2 μM (%)) [%] | Degradation of substrate protein AKT (substrate protein remaining %) (AKT) |
| --- | --- | --- | --- |
| Cn1ncc(Cl)c1-c1cc(C(=O)N[C@H](CNCC2CCN(c3ccc4c(c3)C(=O)N(N3CCC(=O)NC3=O)C4=O)CC2)Cc2ccc(F)c(F)c2)oc1Cl [GT-08584, (S)-5-chloro-4-(4-chloro-1-methyl-1H-pyrazol-5-yl)-N-(1-(3,4-difluorophenyl)-3-(((1-(2-(2,4-dioxotetrahydropyrimidin-1(2H)-yl)-1,3-dioxoisoindolin-5-yl)piperidin-4-yl)methyl)amino)propan-2-yl) furan-2-carboxamide] | 10 to 20 | 53 to 60 | A (0%≤substrate protein remaining %≤80%) |
| Cn1ncc(Cl)c1-c1cc(C(=O)N[C@@H](Cc2ccc(F)c(F)c2)CN2CCN(Cc3ccc4c(c3)CN(N3CCC(=O)NC3=O)C4=O)CC2)oc1Cl [GT-08575, (S)-5-chloro-4-(4-chloro-1-methyl-1H-pyrazol-5-yl)-N-(1-(3,4-difluorophenyl)-3-(4-((2-(2,4-dioxotetrahydropyrimidin-1(2H)-yl)-1-oxoisoindolin-5-yl)methyl)piperazin-1-yl)propan-2-yl) furan-2-carboxamide] |  |  | A (0%≤substrate protein remaining %≤80%) |
| Cn1ncc(Cl)c1-c1cc(C(=O)N[C@H](CNCc2ccc3c(c2)C(=O)N(N2CCC(=O)NC2=O)C3=O)Cc2ccc(F)c(F)c2)oc1Cl [GT-08579, (S)-5-chloro-4-(4-chloro-1-methyl-1H-pyrazol-5-yl)-N-(1-(3,4-difluorophenyl)-3-(((2-(2,4-dioxotetrahydropyrimidin-1(2H)-yl)-1,3-dioxoisoindolin-5-yl)methyl)amino)propan-2-yl) furan-2-carboxamide] |  |  | A (0%≤substrate protein remaining %≤80%) |
| Cn1ncc(Cl)c1-c1cc(C(=O)N[C@H](CNCc2ccc3c(c2)C(=O)N(N2CCC(=O)NC2=O)C3=O)Cc2cccc(F)c2)sc1Cl [GT-08577, (S)-5-chloro-4-(4-chloro-1-methyl-1H-pyrazol-5-yl)-N-(1-(((2-(2,4-dioxotetrahydropyrimidin-1(2H)-yl)-1,3-dioxoisoindolin-5-yl)methyl)amino)-3-(3-fluorophenyl)propan-2-yl)thiophene-2-carboxamide] |  |  | A (0%≤substrate protein remaining %≤80%) |
